Series [1] in a line: Toxicity test of a 7-day repeatedly intragastric administration in SD rats. In kind it is in vivo. The source says: (§1) 1) In the experiment, 112 rats (56 rats/sex) were divided into 14 groups by sex and body weight, wherein 70 rats were used for toxicology study (groups 1 to 7, 5 rats/sex/group) and 42 rats were used for toxicokinetics study (groups 8 to 14, 3 rats/sex/group).
2) As the vehicle control group, the animals in groups 1 and 8 were intragastrically administered 20% aqueous SBE-(3-CD (Captisol) solution.
(§2) 3) The animals in groups 2 and 9, groups 3 and 10, and groups 4 and 11 were intragastrically administered GDC-0077 at 10, 30 and 60 mg/kg, respectively.
(§3) 4) The animals in groups 5 and 12, groups 6 and 13, and groups 7 and 14 were intragastrically administered the compound of Example 51 at 10, 30 and 60 mg/kg, respectively.
(§4) 5) The animals were administered once a day for 7 consecutive days (the animals in groups 7 and 14 were administered for 6 consecutive days).
6) The administration volume was 10 mL/kg.
(§5) 7) During the experiment, items such as clinical observation, body weight, food intake, clinicopathological indicators (blood cell count, coagulation function, blood biochemistry), toxicokinetics and the like were studied.
8) All animals were euthanized on Day 8 (the animals in groups 7 and 14 were euthanized after administration on Day 6).
9) During the experiment, gross anatomy observation was carried out on animals in groups 1 to 7, animals in group 14 and dead animals (including animals in toxicokinetics study), and histopathological examination was carried out on abnormal tissues, gastrointestinal tissues (such as colon and cecum) and immune tissues (such as thymus).

The nature of series [2]: Toxicokinetics in the 7-day repeated intragastric administration study in SD rats. In kind it is in vivo, Sprague-Dawley (SD) rats. Particulars: Sprague-Dawley, rat, plasma, po, read-out: average system exposure AUC.
From the text: Liquid chromatography−mass spectrometry (detector: API4000, electrospray source (ESI) positive ion mode, column: Agilent ZORBAX XDB-C18 (3.5 μm, 2.1×50 mm)), which was used for the biological analysis of plasma sample.
as §1, §2, §3, §4, §5

A further series concerns the target T1, PI3Kα (Homo sapiens, UniProt P42336).
T1 construct: purchased Promega V1721
In words: ADP-Glo lipid kinase assay, PI3Kα kinase activity. In kind it is biochemical. The conditions noted are these: ADP-Glo; 0.1 nM enzyme, 120 min, 50 μM ATP. As to the method:
(§6) Experimental method: Promega's ADP-Glo lipid kinase assay method (Promega #V9102) was applied in this experiment. Lipid kinase PI3Kα/β/γ/δ catalyzed the generation of ADP from ATP in the presence of the substrate PIP2: 3PS and ATP. The lipid kinase activity was characterized by measuring the ADP content in the reaction, and the half inhibitory concentration IC50 of the compound on inhibiting PI3Kα/β/γ/δ kinase activity was thus obtained.
(§7) The kinase reaction was carried out in a white 384-well plate (Perkin Elmer #6007299). 2 μL of the compound solution of different concentrations diluted with ddH2O containing 1% DMSO was added to each well. 2 μL of ddH2O containing 1% DMSO was added to the positive control well. 2 μL of 0.1-2 nM PI3K kinase solution diluted with 5× kinase buffer (HEPES 250 mM, MgCl2 15 mM, NaCl 250 mM, BSA 0.05%) was added to each well. 2 μL of 5× kinase buffer was added to the negative control well. 4 μL of 50 μM substrate PIP2: 3PS (Promega #V1701) formulated with 10× Dilution buffer and ddH2O was added to all wells. Finally, 2 μL of […] ATP solution diluted with water was added to start the reaction. After the reaction was carried out at room temperature for 90 to 120 minutes, 10 μL of ADP-Glo Reagent (containing 10 mM MgCl2) was added to each well, and reacted at room temperature for 60 minutes to remove excess ATP in the reaction. 20 μL of Kinase Detection Reagent was added to each well, and reacted at room temperature in the dark for 20 minutes. The chemiluminescence value was measured by the BioTek Synergy H1 microplate reader.
(§8) The percentage inhibition data of the compound-treated well was calculated through the positive control well (DMSO control well) and negative control well (no kinase added) on the plate {% inhibition rate=100−[(test compound value−negative control value)]/(positive control value−negative control value)×100}. The IC50 value was calculated by fitting the data of different concentrations and corresponding percentage inhibition rates to a four-parameter nonlinear logic formula with GraphPad prism.

A further series has as its target T2, PI3Kβ (Homo sapiens, UniProt P42338).
T2 construct: purchased Carna 11-102
In words: ADP-Glo lipid kinase assay, PI3Kβ kinase activity. Particulars: 0.4 nM enzyme, 90 min, 100 μM ATP. In kind it is biochemical. As to the method:
as §6, §7, §8

Another series addresses T3, PI3Kγ (Homo sapiens, UniProt P48736).
T3 construct: purchased Thermofisher PV4786
The experiment in a line: ADP-Glo lipid kinase assay, PI3Kγ kinase activity. In kind it is biochemical. The conditions noted are these: 0.4 nM enzyme, 120 min, 50 μM ATP. As to the method:
as §6, §7, §8

Another series addresses T4, PI3Kδ (Homo sapiens, UniProt O00329).
T4 construct: purchased Carna 11-103
In words: ADP-Glo lipid kinase assay, PI3Kδ kinase activity. The class given is biochemical. Particulars: 0.1 nM enzyme, 90 min, 100 μM ATP. As to the method: as §6, §7, §8

A short description of series [3]: Pharmacokinetic (PK) assay in mice. Particulars: male, Balb/c, mouse, plasma, po, single intragastric 5 mg/kg. In kind it is in vivo. As to the method: The pharmacokinetic assay of the preferred compounds of the examples of the present invention in mice was carried out in Balb/c male mice (Shanghai Jiesijie Laboratory Animal Co., LTD). • Administration mode: single intragastric administration. • Administration dose: 5 mg/10 ml/kg (body weight). • Formulation: the compound was dissolved in 0.5% CMC-Na by ultrasound to obtain a clear solution or homogeneous suspension. • Sampling points: 0.5, 1, 2, 4, 6, 8 and 24 hours after administration. • Sample process: • 1) 0.1 mL of blood was taken from the orbit, placed in a K2-EDTA tube, and centrifuged for 5 to 20 minutes at room temperature at 1000 to 3000×g to separate the plasma, which was then stored at −80° C. • 2) 160 uL of acetonitrile was added to 40 uL of plasma sample for precipitation, and then the mixture was centrifuged for 5 to 20 minutes at 500 to 2000×g. • 3) 100 uL of processed supernatant was taken and analyzed by LC/MS/MS assay to determine the concentration of the test compound. • LC-MS/MS assay: • Liquid chromatography condition: Shimadzu LC-20AD pump • Mass spectrometry condition: AB Sciex API 4000 mass spectrometer • Chromatographic column: phenomenex Gemiu 5 μm C18 50×4.6 mm • Mobile phase: solution A was 0.1% aqueous formic acid solution, and solution B was acetonitrile • Flow rate: 0.8 mL/min • Elution time: 0-4 minutes gradient elution • Pharmacokinetics: […]
The main parameters were calculated using WinNonlin 6.1.

The mark [4] stands for this setting: SD rats, 10, 30 and 60 mg/kg (low, middle, high dose).

Molecules are shown by their SMILES. Like-named read-outs stand apart in the source and are kept apart here.

T1 sequence (P42336 whole entry): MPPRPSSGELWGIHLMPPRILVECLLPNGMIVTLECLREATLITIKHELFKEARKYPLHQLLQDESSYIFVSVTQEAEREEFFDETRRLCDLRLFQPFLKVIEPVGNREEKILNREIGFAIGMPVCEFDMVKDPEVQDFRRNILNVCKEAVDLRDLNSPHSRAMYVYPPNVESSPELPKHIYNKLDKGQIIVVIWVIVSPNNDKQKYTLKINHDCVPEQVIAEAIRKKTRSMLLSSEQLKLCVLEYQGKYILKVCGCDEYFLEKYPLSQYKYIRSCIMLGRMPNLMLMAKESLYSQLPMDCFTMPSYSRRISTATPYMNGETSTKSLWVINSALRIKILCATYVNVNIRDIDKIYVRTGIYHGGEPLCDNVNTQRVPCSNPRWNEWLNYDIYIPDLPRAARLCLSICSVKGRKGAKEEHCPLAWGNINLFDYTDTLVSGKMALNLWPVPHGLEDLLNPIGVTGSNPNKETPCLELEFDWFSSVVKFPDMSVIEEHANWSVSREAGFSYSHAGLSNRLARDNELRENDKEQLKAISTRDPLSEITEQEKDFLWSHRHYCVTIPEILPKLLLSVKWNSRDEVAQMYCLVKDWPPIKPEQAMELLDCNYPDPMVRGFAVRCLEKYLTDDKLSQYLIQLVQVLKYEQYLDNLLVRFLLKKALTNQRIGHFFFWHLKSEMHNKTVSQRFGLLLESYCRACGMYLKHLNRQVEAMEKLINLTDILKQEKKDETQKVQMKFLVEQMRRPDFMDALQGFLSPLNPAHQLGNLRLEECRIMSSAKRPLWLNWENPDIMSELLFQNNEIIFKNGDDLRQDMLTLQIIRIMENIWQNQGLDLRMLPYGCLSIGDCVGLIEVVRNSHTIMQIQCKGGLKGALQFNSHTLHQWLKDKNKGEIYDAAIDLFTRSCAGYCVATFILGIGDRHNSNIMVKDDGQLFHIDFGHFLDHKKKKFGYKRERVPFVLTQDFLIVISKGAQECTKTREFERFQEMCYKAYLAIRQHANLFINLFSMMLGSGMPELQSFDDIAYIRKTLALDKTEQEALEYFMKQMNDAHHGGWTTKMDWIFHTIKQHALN
T1 sequence (P27986 whole entry partner): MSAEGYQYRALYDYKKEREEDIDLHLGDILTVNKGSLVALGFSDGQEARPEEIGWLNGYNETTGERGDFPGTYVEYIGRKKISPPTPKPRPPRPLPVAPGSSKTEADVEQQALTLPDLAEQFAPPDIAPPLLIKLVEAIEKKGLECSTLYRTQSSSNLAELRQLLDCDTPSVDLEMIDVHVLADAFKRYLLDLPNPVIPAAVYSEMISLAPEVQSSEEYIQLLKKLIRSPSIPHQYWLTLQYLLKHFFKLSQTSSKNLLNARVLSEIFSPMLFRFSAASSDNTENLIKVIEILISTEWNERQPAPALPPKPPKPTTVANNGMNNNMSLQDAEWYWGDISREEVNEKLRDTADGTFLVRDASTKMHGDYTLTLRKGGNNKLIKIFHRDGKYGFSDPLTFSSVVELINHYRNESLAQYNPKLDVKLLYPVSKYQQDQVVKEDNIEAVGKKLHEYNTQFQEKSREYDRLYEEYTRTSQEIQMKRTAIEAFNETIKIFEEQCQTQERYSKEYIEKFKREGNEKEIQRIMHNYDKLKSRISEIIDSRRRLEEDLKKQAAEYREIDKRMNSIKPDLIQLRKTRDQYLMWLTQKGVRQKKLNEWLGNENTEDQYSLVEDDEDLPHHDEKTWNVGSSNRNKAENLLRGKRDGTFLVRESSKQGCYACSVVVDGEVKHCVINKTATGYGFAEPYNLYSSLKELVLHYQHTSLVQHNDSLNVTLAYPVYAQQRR
T4 sequence (O00329 whole entry): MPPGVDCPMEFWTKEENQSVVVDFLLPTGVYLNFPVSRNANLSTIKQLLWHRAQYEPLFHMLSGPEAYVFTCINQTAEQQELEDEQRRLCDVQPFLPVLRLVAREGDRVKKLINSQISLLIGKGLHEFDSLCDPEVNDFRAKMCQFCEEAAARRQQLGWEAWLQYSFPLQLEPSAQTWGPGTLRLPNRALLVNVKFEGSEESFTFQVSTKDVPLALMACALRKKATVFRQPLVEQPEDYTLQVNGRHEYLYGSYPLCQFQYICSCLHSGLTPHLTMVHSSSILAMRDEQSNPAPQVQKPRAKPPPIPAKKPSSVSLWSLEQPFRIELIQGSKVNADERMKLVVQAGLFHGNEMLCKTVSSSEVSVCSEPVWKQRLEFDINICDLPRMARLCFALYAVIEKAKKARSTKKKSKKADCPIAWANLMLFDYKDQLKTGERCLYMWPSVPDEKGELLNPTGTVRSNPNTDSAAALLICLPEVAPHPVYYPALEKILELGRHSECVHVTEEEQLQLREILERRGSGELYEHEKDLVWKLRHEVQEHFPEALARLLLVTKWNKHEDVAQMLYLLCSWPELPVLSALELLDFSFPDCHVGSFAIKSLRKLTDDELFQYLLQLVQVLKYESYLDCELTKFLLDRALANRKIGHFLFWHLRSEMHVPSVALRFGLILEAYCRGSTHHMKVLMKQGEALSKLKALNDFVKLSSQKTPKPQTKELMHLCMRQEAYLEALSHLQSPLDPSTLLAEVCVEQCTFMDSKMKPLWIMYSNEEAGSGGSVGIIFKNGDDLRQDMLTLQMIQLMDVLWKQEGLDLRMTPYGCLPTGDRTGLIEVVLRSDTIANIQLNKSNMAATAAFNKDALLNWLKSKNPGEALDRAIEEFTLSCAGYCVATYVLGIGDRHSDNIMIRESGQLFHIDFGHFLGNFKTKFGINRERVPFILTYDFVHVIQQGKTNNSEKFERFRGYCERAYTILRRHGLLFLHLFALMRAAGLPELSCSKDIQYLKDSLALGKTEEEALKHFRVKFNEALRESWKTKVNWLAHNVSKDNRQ
T4 sequence (P27986 whole entry partner): as the sequence (P27986 whole entry partner) above
T3 sequence (P48736 whole entry): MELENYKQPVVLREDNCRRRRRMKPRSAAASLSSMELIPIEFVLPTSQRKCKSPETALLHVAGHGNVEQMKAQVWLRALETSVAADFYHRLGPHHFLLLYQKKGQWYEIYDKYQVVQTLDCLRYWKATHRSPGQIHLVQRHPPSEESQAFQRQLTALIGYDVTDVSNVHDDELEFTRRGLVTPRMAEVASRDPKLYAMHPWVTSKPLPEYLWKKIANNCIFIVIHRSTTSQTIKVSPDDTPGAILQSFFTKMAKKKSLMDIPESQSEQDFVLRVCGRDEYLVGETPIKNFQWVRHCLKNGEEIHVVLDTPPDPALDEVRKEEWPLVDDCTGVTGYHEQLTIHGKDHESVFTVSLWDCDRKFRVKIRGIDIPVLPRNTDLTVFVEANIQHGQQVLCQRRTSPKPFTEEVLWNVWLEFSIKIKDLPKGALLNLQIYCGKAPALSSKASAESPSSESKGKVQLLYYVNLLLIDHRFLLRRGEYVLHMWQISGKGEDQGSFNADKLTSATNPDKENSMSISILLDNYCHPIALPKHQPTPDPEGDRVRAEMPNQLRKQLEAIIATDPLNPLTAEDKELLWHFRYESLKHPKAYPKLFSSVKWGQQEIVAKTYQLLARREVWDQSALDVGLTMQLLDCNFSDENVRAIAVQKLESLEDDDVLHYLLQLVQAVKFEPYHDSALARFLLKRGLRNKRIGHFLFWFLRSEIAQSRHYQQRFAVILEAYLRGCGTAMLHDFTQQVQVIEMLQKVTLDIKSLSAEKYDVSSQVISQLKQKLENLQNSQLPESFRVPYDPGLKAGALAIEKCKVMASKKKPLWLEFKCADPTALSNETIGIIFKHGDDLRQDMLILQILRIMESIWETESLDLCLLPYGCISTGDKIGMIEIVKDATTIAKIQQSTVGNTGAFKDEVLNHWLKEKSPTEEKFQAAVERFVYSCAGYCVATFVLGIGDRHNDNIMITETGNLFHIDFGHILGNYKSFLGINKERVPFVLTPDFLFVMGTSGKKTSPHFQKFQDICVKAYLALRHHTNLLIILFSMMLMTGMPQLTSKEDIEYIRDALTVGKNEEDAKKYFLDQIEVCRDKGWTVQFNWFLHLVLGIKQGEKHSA
T2 sequence (P42338 whole entry): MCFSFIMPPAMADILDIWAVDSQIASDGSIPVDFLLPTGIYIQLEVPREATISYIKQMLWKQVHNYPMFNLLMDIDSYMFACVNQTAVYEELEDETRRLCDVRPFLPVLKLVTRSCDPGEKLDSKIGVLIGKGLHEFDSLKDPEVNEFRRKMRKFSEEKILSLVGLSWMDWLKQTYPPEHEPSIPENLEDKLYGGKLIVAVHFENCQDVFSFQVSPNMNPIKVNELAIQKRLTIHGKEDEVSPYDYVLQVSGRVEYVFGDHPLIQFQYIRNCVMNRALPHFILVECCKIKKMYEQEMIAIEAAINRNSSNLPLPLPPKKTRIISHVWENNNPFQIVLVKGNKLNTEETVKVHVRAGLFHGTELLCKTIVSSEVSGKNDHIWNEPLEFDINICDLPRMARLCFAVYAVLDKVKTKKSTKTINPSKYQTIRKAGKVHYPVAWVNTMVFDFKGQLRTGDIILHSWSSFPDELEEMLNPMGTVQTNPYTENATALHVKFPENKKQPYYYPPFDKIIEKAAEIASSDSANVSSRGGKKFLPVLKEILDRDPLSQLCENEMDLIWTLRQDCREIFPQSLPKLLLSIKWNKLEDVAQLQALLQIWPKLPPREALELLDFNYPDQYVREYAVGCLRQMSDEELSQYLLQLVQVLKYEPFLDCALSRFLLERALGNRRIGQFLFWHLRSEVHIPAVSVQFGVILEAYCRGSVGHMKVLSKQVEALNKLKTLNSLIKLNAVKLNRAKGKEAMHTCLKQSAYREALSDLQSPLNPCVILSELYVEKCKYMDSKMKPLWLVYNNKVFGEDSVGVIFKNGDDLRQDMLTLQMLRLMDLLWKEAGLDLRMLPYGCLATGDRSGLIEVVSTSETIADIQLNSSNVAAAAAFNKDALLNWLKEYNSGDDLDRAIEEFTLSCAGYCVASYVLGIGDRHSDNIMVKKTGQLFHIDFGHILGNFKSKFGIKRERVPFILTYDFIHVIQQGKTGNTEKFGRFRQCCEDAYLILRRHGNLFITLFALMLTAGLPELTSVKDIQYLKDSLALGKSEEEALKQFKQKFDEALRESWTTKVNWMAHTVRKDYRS
T2 sequence (P27986 whole entry partner): as the sequence (P27986 whole entry partner) above

`C[C@H](Nc1ccc2c(c1)OCCn1cc(N3C(=O)OC[C@H]3C(F)F)nc1-2)C(N)=O` [GDC-0077, reference compound]: the “main target organs of the toxicity” value in series [1] (SD rats) was “gastrointestinal tissues (such as stomach and cecum) and immune tissues (such as thymus)”. Also, in series [1] (SD rats, 10, 30 and 60 mg/kg), the “Blood cell counting and coagulation function” value was “In each dose group, Retic decreased in both male and female animals”. For the same compound, the “Pathology, pathological changes under the microscope” value in series [1] (SD rats, 10, 30 and 60 mg/kg) is “atrophy of goblet cells in the cecal mucosa, increase in thymic tingible body macrophages, and erosion, bleeding and edema of gastric mucosal”. Moreover, the “Body weight and food intake” value in series [1] (setting [4]) is “In the middle-dose and high-dose groups, the final body weight of all animals declined, and their food intake also declined during the same period”. Also, the Clinical observation entry in series [1] (setting [4]) was “In the high-dose group, abnormal symptoms such as arched back, loose stools, perianal contamination and fluffy coat were observed”. Also, the Near-death/death entry in series [1] (SD rats, dose of 60 mg/kg) is “near-dead/dead animals were found”. The compound also returned a lethal dose in series [1] (SD rats, intragastric once/day for 7 days) of 60 mg/kg. In series [1] (both sexes, Sprague-Dawley, rat, in vivo, po, SD rats, intragastric once/day for 7 days, read-out: maximum tolerated dose (MTD)), the MTD at 7 days amounted to 30 mg/kg. Further, the AUC came out at 2250 ng·h/mL in series [2] (10 mg/kg intragastric once a day, after the last administration, female); 845 ng·h/mL in series [2] (10 mg/kg intragastric once a day, after the last administration, male); 6510 ng·h/mL in series [2] (30 mg/kg intragastric once a day, after the last administration, female); 3000 ng·h/mL in series [2] (30 mg/kg intragastric once a day, after the last administration, male); 22800 ng·h/mL in series [2] (60 mg/kg intragastric, after the first administration, female); 15400 ng·h/mL in series [2] (60 mg/kg intragastric, after the first administration, male).

With `C[C@@H](C(N)=O)N(C)c1ccc2c(c1)OCCn1cc(N3C(=O)OC[C@H]3C(F)F)nc1-2` [Example 43, (S)-2-((2-((S)-4-(difluoromethyl)-2-oxooxazolidin-3-yl)-5,6-dihydrobenzo[f]imidazo[1,2-d][1,4]oxazepin-9-yl)(methyl)amino)propanamide], the IC50 came to 0.86 nM at PI3Kα, 283 nM on PI3Kβ, 557 nM on PI3Kγ and 25 nM at PI3Kδ. In series [3] (read-out: Area under curve AUC0-t), the AUC(0-t) came to 3440 ng·h/mL. Moreover, in series [3] (read-out: Area under curve AUC0-∞), the AUC(0-inf) came out at 3500 ng·h/mL. In addition, the half-life in series [3] (read-out: Half-life t1/2(h) (converted)) is 1 h. The MRT in series [3] (read-out: Mean residence time MRT) was 1.8 h. Besides, the time of peak concentration (Tmax) in series [3] (read-out: Peak time tmax) was 0.5 h. In addition, the Cmax in series [3] (read-out: Plasma concentration Cmax) stood at 2060 ng/mL.

The values are drawn from patent US20210221822A1, “TRICYCLIC DERIVATIVES INHIBITOR, PREPARATION METHOD, AND APPLICATIONS THEREOF” (Jiangsu Hansoh Pharmaceutical Group Co., Ltd., priority 2018, published 2021).
